Test results taken from patent US6737383B1, “Herbicidal oxadiazolidines” (priority 1999, dated 2004).

How the values were obtained:
[1] = system: bedstraw; experiment: Test B pre/postemergence bedstraw; type: in vivo, Galium aparine; conditions: Preemergence; for Plant response rating, Bedstraw: scale of 0 to 10 where 0 is no effect and 10 is complete control; for Bedstraw plant response rating: scale 0 to 10, 0 is no effect, 10 is complete control
How it was run: (§1)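 Response is a visual 0-to-10 score relative to untreated plants, where 0 means no effect and 10 means complete control, taken twelve to sixteen days after application. Treatments went onto soil at planting and onto foliage of 1- to 4-leaf plants, using a surfactant-containing non-phytotoxic solvent.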

[2] = system: blackgrass; experiment: Test B pre/postemergence blackgrass; type: in vivo, Alopecurus myosuroides
How it was run: as §1

[3] = system: surinam grass; experiment: Test B pre/postemergence surinam grass; type: in vivo, Brachiaria decumbens
How it was run: as §1

[4] = system: cocklebur; experiment: Test B pre/postemergence cocklebur; type: in vivo, Xanthium strumarium
How it was run: as §1

[5] = system: corn; experiment: Test B pre/postemergence corn; type: in vivo, Zea mays
How it was run: as §1

[6] = system: crabgrass; experiment: Test B pre/postemergence crabgrass; type: in vivo, Digitaria sanguinalis
How it was run: as §1

[7] = system: morningglory; experiment: Test B pre/postemergence morningglory; type: in vivo, Ipomoea hederacea; conditions: for Plant response rating, Morningglory: scale of 0 to 10 where 0 is no effect and 10 is complete control
How it was run: as §1

[8] = system: pigweed; experiment: Test B pre/postemergence pigweed; type: in vivo, Amaranthus retroflexus; conditions: for Plant response rating, Redroot pigweed: scale of 0 to 10 where 0 is no effect and 10 is complete control
How it was run: as §1

[9] = system: rape; experiment: Test B pre/postemergence rape; type: in vivo, Brassica napus; conditions: for Plant response rating, Rape: scale of 0 to 10 where 0 is no effect and 10 is complete control
How it was run: as §1

[10] = system: sugar beet; experiment: Test B pre/postemergence sugar beet; type: in vivo, Beta vulgaris; conditions: for Plant response rating, Sugarbeets: scale of 0 to 10 where 0 is no effect and 10 is complete control
How it was run: as §1

[11] = system: velvetleaf; experiment: Test B pre/postemergence velvetleaf; type: in vivo, Abutilon theophrasti; conditions: for Plant response rating, Velvetleaf: scale of 0 to 10 where 0 is no effect and 10 is complete control
How it was run: as §1

[12] = system: wheat; experiment: Test B pre/postemergence wheat; type: in vivo, Triticum aestivum; conditions: for Plant response rating, Wheat: scale of 0 to 10 where 0 is no effect and 10 is complete control
How it was run: as §1

[13] = system: wild oat; experiment: Test B pre/postemergence wild oat; type: in vivo, Avena fatua; conditions: for Plant response rating, Wild oats: scale of 0 to 10 where 0 is no effect and 10 is complete control
How it was run: as §1

[14] = system: purple nutsedge; experiment: Test B pre/postemergence purple nutsedge; type: in vivo, Cyperus rotundus
How it was run: as §1

[15] = system: smallflower flatsedge; experiment: Test B flood test smallflower flatsedge; type: in vivo, Cyperus difformis
How it was run: (§2)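 Read-out is a visual response score from 0 (no effect) to 10 (complete control), assigned by comparison with untreated controls. Treatment was applied at the 2-leaf stage, and plants stayed in the greenhouse for twelve to sixteen days before scoring.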

[16] = system: duck salad; experiment: Test B flood test duck salad; type: in vivo, Heteranthera limosa
How it was run: as §2

[17] = Postemergence, Rate 250 g/ha, scale 0 to 10
[18] = Postemergence, Rate 500 g/ha, scale of 0 to 10 where 0 is no effect and 10 is complete control
[19] = Preemergence, Rate 62 g/ha, scale of 0 to 10 where 0 is no effect and 10 is complete control
[20] = Preemergence, Rate 125 g/ha, scale of 0 to 10 where 0 is no effect and 10 is complete control
[21] = Preemergence, Rate 250 g/ha, scale 0 to 10, 0 is no effect, 10 is complete control
[22] = Preemergence, Rate 500 g/ha, scale 0 to 10, 0 is no effect, 10 is complete control
[23] = Rate 62 g/ha, Postemergence, scale 0 to 10, 0 no effect, 10 complete control
[24] = Rate 125 g/ha, Postemergence, scale 0 to 10, 0 is no effect, 10 is complete control
[25] = Rate 62 g/ha, flood test species, Pre-emergence, visual evaluation after twelve to sixteen days
[26] = Rate 125 g/ha, under heading Pre-emergence, flood test species, visual evaluation after twelve to sixteen days
[27] = Rate 250 g/ha, Pre-emergence (flood test species), scale 0 to 10, 0 is no effect, 10 is complete control
[28] = Rate 500 g/ha, Pre-emergence, flood test species, scale 0 to 10 (0 no effect, 10 complete control)

With `CC(C)N(C(=O)n1oc(=O)n(COCC[Si](C)(C)C)c1=O)c1ccc(Cl)cc1` [Compound 467] the “Plant response rating, Bedstraw” value ([1]; Rate 62 g/ha) was 0, the “Plant response rating, Bedstraw” value ([1]; Rate 125 g/ha) was 0 and the “Bedstraw plant response rating” value ([1]; Rate 250 g/ha) was 0. For the same molecule, the “Bedstraw plant response rating” value ([1]; Rate 500 g/ha) was 0, the “Blackgrass plant response rating” value [2, 17] was 0 and the “Blackgrass plant response rating” value [2, 18] was 7. The “Plant response rating, Blackgrass” value [2, 19] was 0, the “Plant response rating, Blackgrass” value [2, 20] was 2 and the “Blackgrass plant response rating” value [2, 21] was 2. The “Blackgrass plant response rating” value [2, 22] was 2, the “Blackgrass plant response rating” value [2, 23] was 0 and the “Blackgrass plant response rating” value [2, 24] was 0. The “B. signalgrass plant response rating” value ([3]; Postemergence, Rate 250 g/ha, scale 0 to 10, 0 no effect, 10 complete control) was 0, the “B. signalgrass plant response rating” value [3, 18] was 0 and the “Plant response rating, B. signalgrass” value [3, 19] was 0. The “Plant response rating, B. signalgrass” value [3, 20] was 0, the “B. signalgrass plant response rating” value [3, 21] was 0 and the “B. signalgrass plant response rating” value [3, 22] was 2. For the same molecule, the “B. signalgrass plant response rating” value [3, 23] was 0, the “B. signalgrass plant response rating” value [3, 24] was 0 and the “Cocklebur plant response rating” value [4, 17] was 0. For the same molecule, the “Cocklebur plant response rating” value [4, 18] was 5, the “Plant response rating, Cocklebur” value [4, 19] was 2 and the “Plant response rating, Cocklebur” value [4, 20] was 4. The “Cocklebur plant response rating” value [4, 21] was 6, the “Cocklebur plant response rating” value [4, 22] was 6 and the “Cocklebur plant response rating” value [4, 23] was 0. The “Cocklebur plant response rating” value [4, 24] was 0, the “Corn plant response rating” value [5, 17] was 0 and the “Corn plant response rating” value [5, 18] was 0. For the same molecule, the “Plant response rating, Corn” value [5, 19] was 0, the “Plant response rating, Corn” value [5, 20] was 0 and the “Corn plant response rating” value [5, 21] was 0. The “Corn plant response rating” value [5, 22] was 0, the “Corn plant response rating” value [5, 23] was 0 and the “Corn plant response rating” value [5, 24] was 0. The “Crabgrass plant response rating” value [6, 17] was 0, the “Crabgrass plant response rating” value [6, 18] was 6 and the “Plant response rating, Crabgrass” value [6, 19] was 5. The “Plant response rating, Crabgrass” value [6, 20] was 6, the “Crabgrass plant response rating” value [6, 21] was 6 and the “Crabgrass plant response rating” value [6, 22] was 8. The “Crabgrass plant response rating” value [6, 23] was 0, the “Crabgrass plant response rating” value [6, 24] was 0 and the “Morningglory plant response rating” value [7, 17] was 7. The “Plant response rating, Morningglory” value ([7]; Preemergence, Rate 62 g/ha) was 0, the “Plant response rating, Morningglory” value ([7]; Preemergence, Rate 125 g/ha) was 0 and the “Morningglory plant response rating” value [7, 21] was 0. For the same molecule, the “Morningglory plant response rating” value [7, 22] was 0, the “Morningglory plant response rating” value [7, 23] was 3 and the “Morningglory plant response rating” value [7, 24] was 7. The “Redroot pigweed plant response rating” value [8, 17] was 3, the “Plant response rating, Redroot pigweed” value ([8]; Preemergence, Rate 62 g/ha) was 7 and the “Plant response rating, Redroot pigweed” value ([8]; Preemergence, Rate 125 g/ha) was 7. For the same molecule, the “Redroot pigweed plant response rating” value [8, 21] was 7, the “Redroot pigweed plant response rating” value [8, 22] was 9 and the “Redroot pigweed plant response rating” value [8, 24] was 0. The “Rape plant response rating” value [9, 17] was 4, the “Plant response rating, Rape” value ([9]; Preemergence, Rate 62 g/ha) was 4 and the “Plant response rating, Rape” value ([9]; Preemergence, Rate 125 g/ha) was 7. For the same molecule, the “Rape plant response rating” value [9, 21] was 7, the “Rape plant response rating” value [9, 22] was 7 and the “Rape plant response rating” value [9, 23] was 0. For the same molecule, the “Rape plant response rating” value [9, 24] was 0, the “Sugarbeets plant response rating” value [10, 17] was 4 and the “Plant response rating, Sugarbeets” value ([10]; Preemergence, Rate 62 g/ha) was 1. For the same molecule, the “Plant response rating, Sugarbeets” value ([10]; Preemergence, Rate 125 g/ha) was 1, the “Sugarbeets plant response rating” value [10, 21] was 1 and the “Sugarbeets plant response rating” value [10, 22] was 2. The “Sugarbeets plant response rating” value [10, 23] was 0, the “Sugarbeets plant response rating” value [10, 24] was 2 and the “Velvetleaf plant response rating” value [11, 17] was 0. For the same molecule, the “Plant response rating, Velvetleaf” value ([11]; Preemergence, Rate 62 g/ha) was 0, the “Plant response rating, Velvetleaf” value ([11]; Preemergence, Rate 125 g/ha) was 0 and the “Velvetleaf plant response rating” value [11, 21] was 0. For the same molecule, the “Velvetleaf plant response rating” value [11, 22] was 1, the “Velvetleaf plant response rating” value [11, 23] was 0 and the “Velvetleaf plant response rating” value [11, 24] was 0. The “Wheat plant response rating” value [12, 17] was 0, the “Plant response rating, Wheat” value ([12]; Preemergence, Rate 62 g/ha) was 0 and the “Plant response rating, Wheat” value ([12]; Preemergence, Rate 125 g/ha) was 0. The “Wheat plant response rating” value [12, 21] was 0, the “Wheat plant response rating” value [12, 22] was 0 and the “Wheat plant response rating” value [12, 23] was 0. The “Wheat plant response rating” value [12, 24] was 0, the “Wild oats plant response rating” value [13, 17] was 2 and the “Plant response rating, Wild oats” value ([13]; Preemergence, Rate 62 g/ha) was 0. The “Plant response rating, Wild oats” value ([13]; Preemergence, Rate 125 g/ha) was 0, the “Wild oats plant response rating” value [13, 21] was 0 and the “Wild oats plant response rating” value [13, 22] was 0. For the same molecule, the “Wild oats plant response rating” value [13, 23] was 0, the “Wild oats plant response rating” value [13, 24] was 0 and the “Nutsedge plant response rating” value [14, 17] was 0. For the same molecule, the “Plant response rating, Nutsedge” value [14, 20] was 0, the “Nutsedge plant response rating” value [14, 21] was 0 and the “Nutsedge plant response rating” value [14, 22] was 0. The “Nutsedge plant response rating” value [14, 23] was 0, the “Plant response rating, S. Flatsedge (0 to 10 scale, 0 is no effect, 10 is complete control)” value [15, 25] was 0 and the “S. Flatsedge plant response rating (0 to 10 scale, 0 is no effect, 10 is complete control)” value [15, 26] was 0. The “S. Flatsedge plant response rating” value [15, 27] was 0, the “S. Flatsedge plant response rating” value [15, 28] was 0 and the “Plant response rating, Ducksalad (0 to 10 scale, 0 is no effect, 10 is complete control)” value [16, 25] was 0. The “Ducksalad plant response rating (0 to 10 scale, 0 is no effect, 10 is complete control)” value [16, 26] was 0, the “Ducksalad plant response rating” value [16, 27] was 0 and the “Ducksalad plant response rating” value [16, 28] was 0.
